The text below walks through data of ChEMBL document CHEMBL1133377, “1-[2-(Diphenylmethoxy)ethyl]-2-methyl-5-nitroimidazole: a potent lead for the design of novel NNRTIs” (Bioorg Med Chem Lett, 2000).

The nature of experiment [1]: Compound dose required to reduce viability of mock infected cells using MTT method. Type of experiment: functional. (In general: Formazan colour is commonly taken as a measure of viable cells.)
Experiment [2] in a line: Selectivity index is ratio of CC50 to that of EC50. Type of experiment: functional.
The next experiment relates to MT4. Nature of the experiment: Compound dose required to achieve protection of MT-4 cells from HIV-1 induced cytopathicity using MTT method. The experiment is classed as functional, cell-based. The conditions noted are these: Homo sapiens. (In general: Damage to the host cells serves as the signal in cytopathic effect assays.)
Experiment [3] concerns the target Human immunodeficiency virus type 1 reverse transcriptase (Human immunodeficiency virus 1, UniProt Q72547). The experiment is described as follows: Compound dose required to inhibit HIV-1 reverse transcriptase enzyme(rRT) activity.

Molecule `Cc1ncc([N+](=O)[O-])n1CCOC(c1ccccc1)c1ccc(-c2ccccc2)cc1` (centres undefined) registered a 50% cytotoxic concentration (CC50) in experiment [1] greater than 200 µM. Moreover, the S.I in experiment [2] amounted to 12. For the same molecule, the EC50 in the experiment with MT4 is 17 µM.

With `Cc1ncc([N+](=O)[O-])n1CCOC(c1ccccc1)c1ccc(F)cc1` (centres undefined), in experiment [3], the IC50 worked out at 2.3 µM. Moreover, the 50% cytotoxic concentration (CC50) in experiment [1] is greater than 200 µM. Also, the S.I in experiment [2] was determined as 222. In the experiment on MT4, this molecule showed an EC50 of 0.9 µM.

For the molecule `Cc1ncc([N+](=O)[O-])n1CCOC(c1ccccc1)c1ccc(Cl)cc1Cl` (centres undefined), the midpoint of inhibition in experiment [3], the IC50, lay at 1.4 µM. The molecule further yielded a CC50 in experiment [1] of 54 µM. Further, the S.I in experiment [2] came out at 36. Moreover, in the experiment on MT4, the EC50 was 1.5 µM.

In experiment [1], `Clc1ccc(C(OCCn2ccnc2)c2ccc(Cl)cc2Cl)cc1` (centres undefined) gave a CC50 of 26 µM. The molecule also returned an EC50 in the experiment with MT4 greater than 26 µM.

With `Cc1ncc([N+](=O)[O-])n1CCOC(c1ccccc1)c1ccccc1`, the IC50 in experiment [3] turned out to be 0.05 µM. In experiment [1], this molecule yielded a CC50 greater than 200 µM. Also, the S.I in experiment [2] was greater than 1000. Further, a half-maximal response with MT4 (EC50) required 0.2 µM.

The molecule `Cc1ncc([N+](=O)[O-])n1CCOC(c1ccccc1)c1ccc(C(C)(C)C)cc1` (centres undefined) had a 50% inhibitory concentration (IC50) in experiment [3] of 1.5 µM. Besides, in experiment [1], the 50% cytotoxic concentration (CC50) is 44 µM. Also, the S.I in experiment [2] turned out to be 11. The molecule further yielded an EC50 in the experiment on MT4 of 4 µM.

Take `Cc1ccc(C(OCCn2c([N+](=O)[O-])cnc2C)c2ccccc2)cc1` (centres undefined): half-maximal inhibition in experiment [3] (IC50) required 2.1 µM. The CC50 in experiment [1] was found to be 86 µM. Further, in experiment [2], the S.I came to 61. In the experiment with MT4, this molecule gave an EC50 of 1.4 µM.

`c1ccc(C(OCCn2ccnc2)c2ccccc2)cc1` gave a CC50 in experiment [1] of 100 µM. The EC50 in the experiment with MT4 was greater than 100 µM.

`Cc1ncc([N+](=O)[O-])n1CCOC(c1ccccc1)c1ccc(Cl)cc1` (centres undefined): the cytotoxic concentration (CC50) in experiment [1] was greater than 200 µM. Besides, the S.I in experiment [2] was greater than 16. It took 12.5 µM to reach a half-maximal effect with MT4 (EC50).

`Clc1ccc(C(OCCn2ccnc2)c2ccccc2)c(Cl)c1` (centres undefined) had a cytotoxic concentration (CC50) in experiment [1] of 31 µM. Further, the concentration for a half-maximal effect (EC50) in the experiment with MT4 is greater than 31 µM.

In turn, `Cc1ccnc2c1NC(=O)c1cccnc1N2C1CC1` [NEVIRAPINE] displayed a cytotoxic concentration (CC50) in experiment [1] greater than 300 µM. Also, the S.I in experiment [2] was greater than 1000.

The term CC50 denotes the concentration that lowers cell viability or growth by half. Low readings indicate harm at low concentration, high ones better tolerance by the cells. The EC50 is the concentration giving half of the maximal effect. As a reminder, the IC50 is the midpoint of a concentration-inhibition curve. Read a high IC50 as a need for much substance.
